Assay results as given in patent US10820591B2, “Substituted sulfonyl amides for controlling animal pests” (Bayer Aktiengesellschaft, priority 2016, dated 2020).

Experiments:
Assay type in all cases: in vivo
[1] = test system: Myzus persicae; experiment: Myzus persicae oral test; conditions: 120 h, after 5 days, read-out: efficacy
Description: Myzus persicae—Oral Test [table] To produce a suitable active compound preparation, 1 part by weight of active compound is dissolved with the stated parts by weight of solvent and made up to the desired concentration with water. 50 μl of the active compound preparation are transferred into microtitre plates and made up to a final volume of 200 μl with 150 μl of IPL41 insect medium (33%+15% sugar). Subsequently, the plates are sealed with parafilm, which a mixed population of green peach aphids (Myzus persicae) within a second microtitre plate is able to puncture and imbibe the solution through it. After 5 days, the efficacy in % is determined. 100% means that all the aphids have been killed; 0% means that no aphids have been killed.

[2] = test system: Meloidogyne incognita; experiment: Meloidogyne incognita test (sand, lettuce, gall formation); conditions: Meloidogyne incognita, 336 h, 20 ppm, after 14 days; read-out: nematicidal efficacy (formation of galls)
Procedure, shortened: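 Gall counts on lettuce roots were scored after 14 days in sand inoculated with root-knot nematode eggs/larvae plus compound diluted in water. Values run from 0% (galls as in untreated plants) to 100% (gall-free).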

[3] = test system: Myzus persicae; experiment: Myzus persicae spray test (Chinese cabbage leaf discs); conditions: foliar, 144 h, after 6 days, read-out: efficacy
Description: Myzus persicae—Spray Test [table] To produce a suitable active compound preparation, 1 part by weight of active compound is dissolved with the specified parts by weight of solvent and made up to the desired concentration with water containing an emulsifier concentration of 1000 ppm. To produce further test concentrations, the formulation is diluted with emulsifier-containing water. Discs of Chinese cabbage leaves (Brassica pekinensis) infested by all stages of the green peach aphid (Myzus persicae) are sprayed with an active compound preparation of the desired concentration. After 6 days, the efficacy in % is determined. 100% means that all the aphids have been killed; 0% means that no aphids have been killed.

[4] = test system: Tetranychus urticae; experiment: Tetranychus urticae spray test, OP-resistant; conditions: foliar, 144 h, bean leaf discs, after 6 days, read-out: efficacy
Description: Tetranychus urticae—Spray Test, OP-Resistant
To produce a suitable active compound preparation, 1 part by weight of active compound is dissolved with the specified parts by weight of solvent and made up to the desired concentration with water containing an emulsifier concentration of 1000 ppm. To produce further test concentrations, the formulation is diluted with emulsifier-containing water.
Discs of bean leaves (Phaseolus vulgaris) infested with all stages of the greenhouse red spider mite (Tetranychus urticae) are sprayed with an active compound preparation of the desired concentration.
After 6 days, the efficacy in % is determined. 100% means that all the spider mites have been killed; 0% means that no spider mites have been killed.

Row | SMILES | pest or weed control at 20 ppm [2] [%] | pest or weed control at 500 g/ha [3] [%] | pest or weed control at 500 g/ha [4] [%] | other results
1 | Cc1nc(C(=O)NS(=O)(=O)c2ccccc2Cl)cn1-c1c(F)cccc1F [I-004] | 90 |  |  | pest or weed control at 20 ppm [1]: 70%
2 | Cc1nc(C(=O)NS(=O)(=O)C(C)C)cn1-c1ccccc1Cl [I-006] | 100 | 90 |  | 
3 | N#Cc1c(C(=O)NS(=O)(=O)c2ccccc2Cl)ncn1CCC(F)(F)F [I-007] | 70 |  |  | pest or weed control at 20 ppm [1]: 70%
4 | COc1ccc(S(=O)(=O)NC(=O)c2ncn(CCC(F)(F)F)c2Br)cc1 [I-010] | 90 | 70 |  | pest or weed control at 100 g/ha ([3]; 100 g/ha): 90%
5 | O=C(NS(=O)(=O)Cc1ccccc1)c1ncn(CCC(F)(F)F)c1Cl [I-028] | 100 |  | 90 | 
6 | CCCn1cnc(C(=O)NS(=O)(=O)c2ccc(Cl)cc2)c1Cl [I-042] | 100 | 70 |  | 
7 | CC(CC(F)(F)F)n1cnc(C(=O)NS(=O)(=O)c2ccc(Cl)cc2)c1Cl (stereo not shown) [I-073] | 100 |  | 90 | 
8 | Cc1cccc(CS(=O)(=O)NC(=O)c2ncn(CCC(F)(F)F)c2Cl)c1 [I-083] | 90 |  | 90 | 
9 | O=C(NS(=O)(=O)Cc1ccccc1Cl)c1ncn(CCC(F)(F)F)c1Cl [I-085] | 90 | 70 | 70 | 
10 | COc1ccc(Cl)c(S(=O)(=O)NC(=O)c2nc(C)n(-c3cc(Cl)cc(Cl)c3)c2Cl)c1 [I-106] | 100 |  |  | pest or weed control at 4 ppm ([1]; 4 ppm): 100%
11 | Cn1cc(C(=O)NS(=O)(=O)c2ccccc2Cl)nc1Cc1ccccc1Cl [I-116] | 90 | 70 |  | pest or weed control at 20 ppm [1]: 90%
12 | CC(C)S(=O)(=O)NC(=O)c1cn(C)c(Cc2cccc(Cl)c2)n1 [I-120] | 100 | 90 |  | 
13 | Cn1cc(C(=O)NS(=O)(=O)c2ccccc2Cl)nc1Cc1ccc(Cl)cc1 [I-121] | 70 |  | 90 | 
14 | CC(C)S(=O)(=O)NC(=O)c1cn(C)c(Cc2ccc(Cl)cc2)n1 [I-122] | 90 | 90 | 100 | 
15 | Cn1nc(C(=O)NS(C)(=O)=O)cc1-c1cc(Cl)ccn1 [I-127] | 70 | 90 |  | pest or weed control at 20 ppm [1]: 70%
16 | O=C(NS(=O)(=O)c1ccc(Cl)cc1)c1cn(Cc2ccccc2Cl)cn1 [I-158] | 100 | 90 |  | 
17 | O=C(NS(=O)(=O)c1ccc(Cl)cc1)c1cn(Cc2cccc(Cl)c2)cn1 [I-160] | 70 |  | 70 | 
18 | Cc1nc(C(=O)NS(=O)(=O)c2ccccc2Cl)cn1Cc1ccc(Cl)cc1 [I-170] | 100 |  | 90 | pest or weed control at 20 ppm [1]: 90%
19 | Cc1nc(C(=O)NS(=O)(=O)c2ccccc2)cn1Cc1ccccc1Cl [I-171] | 100 | 70 | 90 | 
20 | O=C(NS(=O)(=O)c1ccccc1)c1cn(-c2cccc(Cl)c2)cn1 [I-172] | 100 |  | 100 | 
21 | O=C(NS(=O)(=O)c1ccccc1)c1cn(-c2cccc(C(F)(F)F)c2)cn1 [I-173] | 100 |  | 90 | 
22 | O=C(NS(=O)(=O)c1ccccc1Cl)c1cn(-c2ccc(C(F)(F)F)cc2Cl)cn1 [I-197] | 100 |  | 70 | 
23 | O=C(NS(=O)(=O)c1ccccc1)c1cn(-c2ccccc2OC(F)(F)F)cn1 [I-214] | 90 | 70 |  | 

Row | SMILES | pest or weed control at 20 ppm [2] [%] | pest or weed control at 500 g/ha [3] [%] | pest or weed control at 500 g/ha [4] [%] | other results
24 | O=C(NS(=O)(=O)c1c(Cl)cccc1Cl)c1cn(-c2ccccc2F)cn1 [I-220] | 100 | 70 |  | 
25 | COc1ccc(Cl)c(S(=O)(=O)NC(=O)c2cn(-c3cc(F)cc(C(F)(F)F)c3)cn2)c1 [I-250] | 100 |  |  | pest or weed control at 100 ppm [1]: 100%
26 | Cc1nc(C(=O)NS(=O)(=O)c2c(Cl)cccc2Cl)cn1-c1ccccc1 [I-253] | 100 | 90 |  | pest or weed control at 100 ppm [1]: 100%
27 | Cc1ccc(S(=O)(=O)NC(=O)c2cn(-c3ccccc3)c(C)n2)cc1 [I-254] | 100 | 90 |  | pest or weed control at 100 ppm [1]: 100%
28 | Cc1nc(C(=O)NS(=O)(=O)c2ccccc2)cn1-c1ccccc1F [I-255] | 100 |  | 70 | 
29 | Cc1nc(C(=O)NS(=O)(=O)c2ccccc2Cl)cn1-c1cccc(Cl)c1Cl [I-264] | 90 | 70 |  | pest or weed control at 100 ppm [1]: 100%
30 | COc1ccc(Cl)c(S(=O)(=O)NC(=O)c2cn(-c3ccccc3Cl)c(C)n2)c1 [I-266] | 100 |  |  | pest or weed control at 20 ppm [1]: 90%
31 | Cc1nc(C(=O)NS(=O)(=O)c2ccccc2Cl)cn1-c1ccccc1Cl [I-269] | 90 | 70 |  | pest or weed control at 20 ppm [1]: 70%
32 | O=C(NS(=O)(=O)c1c(Cl)cccc1Cl)c1cn(-c2cc(Cl)cc(C(F)(F)F)c2)cn1 [I-286] | 100 |  |  | pest or weed control at 20 ppm [1]: 90%
33 | Cc1cc(-n2cnc(C(=O)NS(=O)(=O)c3c(Cl)cccc3Cl)c2)cc(C(F)(F)F)c1 [I-291] | 90 |  |  | pest or weed control at 20 ppm [1]: 90%
34 | COc1ccc(Cl)c(S(=O)(=O)NC(=O)c2cn(-c3cc(Cl)c(Br)c(Cl)c3)cn2)c1 [I-314] | 90 | 70 |  | 
35 | Cc1nc(C(=O)NS(=O)(=O)c2c(Cl)cccc2Cl)cn1-c1cc(Cl)cc(Cl)c1 [I-317] | 100 | 90 |  | pest or weed control at 20 ppm [1]: 90%
36 | Cc1nc(C(=O)NS(=O)(=O)c2cc(Cl)ccc2Cl)cn1-c1cc(F)cc(Cl)c1 [I-330] | 100 |  | 70 | 
37 | O=C(NS(=O)(=O)c1cc(Cn2cccn2)ccc1Cl)c1cn(-c2cc(Cl)cc(C(F)(F)F)c2)cn1 [I-346] | 70 | 70 |  | 
38 | COc1ccc(Cl)c(S(=O)(=O)NC(=O)c2cn(C)c(Cc3ccccc3)n2)c1 [I-373] | 70 |  | 90 | 
39 | Cc1nc(C(=O)NS(=O)(=O)c2c(F)cccc2NC(C)C)cn1-c1cc(F)cc(F)c1 [I-385] | 100 | 70 |  | 
40 | CCSc1cccc(Cl)c1S(=O)(=O)NC(=O)c1cn(-c2cc(Cl)cc(Cl)c2)cn1 [I-391] | 100 |  | 70 | 
41 | CC(C)Nc1cccc(F)c1S(=O)(=O)NC(=O)c1cn(-c2cc(Cl)cc(Cl)c2)cn1 [I-392] | 100 | 90 |  | pest or weed control at 20 ppm [1]: 100%
42 | COc1ccc(Cl)c(S(=O)(=O)NC(=O)c2cn(-c3cc(Cl)cc(C(F)(F)F)c3)c(C(C)C)n2)c1 [I-401] | 70 | 90 |  | 
43 | CC(C)Oc1ccc(Cl)c(S(=O)(=O)NC(=O)c2nc(Cl)n(C3CC3C(F)(F)F)c2Cl)c1 (stereo not shown) [I-460] | 100 |  |  | pest or weed control at 20 ppm [1]: 70%
44 | COc1ccc(Cl)c(S(=O)(=O)NC(=O)c2ncn(-c3ccc(Cl)cc3)c2C(C)C)c1 [I-483] | 70 |  | 80 | 
45 | COc1ccc(Cl)c(S(=O)(=O)NC(=O)c2ncn(-c3cc(F)ccc3F)c2C(C)C)c1 [I-491] | 100 |  |  | 
46 | CC(C)S(=O)(=O)NC(=O)c1nc(Cl)n(CCC(F)(F)F)c1Cl [I-492] |  |  | 90 | 
